Measured values reported in ChEMBL document CHEMBL1201862, “PubChem BioAssay data set” (2004).
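These data come from cells grown in 96-well plates and exposed to compound for 48 hours at five concentrations. GI50 = concentration required for 50% inhibition of growth.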 Active and inactive are the calls of the source. Cut-off read from the data, not from the text of the source: active = GI50 up to about 1.1 µM and inactive = higher.

Key:
Assay in all cases: NCI-60 cell line screen, 48 h
[1] = system: KM-20L2
[2] = system: SNB-75
[3] = system: HOP-18
[4] = system: SW-620
[5] = system: DLD-1
[6] = system: MOLT-4
[7] = system: SNB-78
[8] = system: SK-MEL-28
[9] = system: SK-MEL-5
[10] = system: CCRF-CEM
[11] = system: LXFL 529
[12] = system: RXF 393
[13] = system: MDA-N
[14] = system: PC-3
[15] = system: MDA-MB-435
[16] = system: DU-145
[17] = system: T47D
[18] = system: MDA-MB-231
[19] = system: CAKI-1
[20] = system: SF-268

Measured: GI50

COC1OC2=CCC3C(=O)NC(=O)C3C2[C@H](OCc2ccccc2)C1OCc1ccccc1 (stereo partly drawn)
inactive: [1] 2.25 µM | [2] 17.3 µM | [3] 3.48 µM | [4] 1.49 µM | [5] 1.97 µM | [6] 1.5 µM | [7] 2.03 µM | [8] 1.84 µM | [9] 19 µM | [10] 1.15 µM | [11] 1.68 µM | [12] 1.61 µM

CCOC(=O)c1csc(NC(=O)CCN2CCCC2)n1
inactive: [2] > 100 µM | [4] > 100 µM | [13] > 100 µM | [14] > 100 µM | [6] > 100 µM | [15] > 100 µM | [16] > 100 µM | [17] > 100 µM | [8] > 100 µM | [9] > 100 µM | [18] > 100 µM | [10] > 100 µM | [12] > 100 µM | [19] > 100 µM

O=C1C=C(C2OC(CO)C(O)C2O)C(=O)N1 (stereo not drawn)
inactive: [1] > 100 µM | [2] > 100 µM | [3] > 100 µM | [4] 26 µM | [5] > 85.3 µM | [6] 45.6 µM | [7] > 100 µM | [20] > 100 µM | [8] > 100 µM | [9] > 100 µM | [10] 32.5 µM | [12] > 100 µM

C/C(=N\Oc1cc(Cl)ncn1)c1ccccn1
inactive: [2] > 100 µM | [4] 84.7 µM | [13] > 100 µM | [14] 45.3 µM | [6] 39.2 µM | [15] 47.4 µM | [16] 48.9 µM | [20] 58.2 µM | [17] 30.2 µM | [8] 39.5 µM | [9] 28.1 µM | [18] 19.8 µM | [10] 34.4 µM | [12] 4 µM | [19] 18.7 µM
